Laboratory results published in patent US9776991B2, “Thienomethylpiperazine derivatives as inhibitors of soluble epoxide hydrolase” (SANOFI, priority 2013, dated 2017).
Where a name gives a salt, the structure may show the parent alone.

biological target: recombinant sEH (soluble epoxide hydrolase, EPHX2) (Homo sapiens (Human), UniProt P34913); experiment: biochemical fluorometric sEH inhibition assay with Phome substrate; settings: recombinant sEH purified from Sf9 insect cells, 2 nM sEH, 5 μM Phome, 60 minutes at 30° C.
Protocol: Compounds were tested in a biochemical screening assay using recombinant sEH purified from Sf9 insect cells and an artificial substrate, (3-phenyl-oxiranyl)-acetic acid cyano-(6-methoxy-naphtalen-2-yl)-methyl ester, Phome. The biochemical assay was performed in analogy to a fluorometric described in the literature (P. D. Jones et al., Anal. Biochem. 2005, 343, 66-75). The assay principle bases on the sEH-catalyzed hydrolysis of an artificial α-cyano-ester substrate. O-deacetylation liberates a cyanohydrin intermediate that rapidly decomposes to the highly fluorescent 6-methoxy-2-naphtaldehyde. To discriminate sample autofluorescence, the assay was carried out as a kinetic measurement with two time points. The first measurement is performed immediately before addition of the substrate and the […] measurement is done after completion of the assay. The assay format is either in 96- or in 384-well format.
Details of the assay using a 96-well plate format are described below. 40 μl recombinant sEH enzyme and 5 μl test compound are pre-incubated for 15 minutes at 30° C. Following pre-incubation, the reaction is started by addition of 5 μl Phome. The assay mixture containing 2 nM final sEH concentration, test compound ranging in a concentration from 0.0001-10 μM and 5 μM Phome is incubated for 60 minutes at 30° C.
Fluorescence is measured with any suitable detector for instance a TECAN Safire or Tecan Ultra at […]. % inhibition of recombinant sEH activity is used for calculation of corresponding IC50 values as illustrated and described in the examples.
The NCBI gene bank reference sequence with the accession number NM_001979 for EPHX2/sEH was applied for recombinant protein production:
The following commercially available materials have been used: • Incubation reagent: 25 mM Hepes (Sigma-Aldrich, Cat. No H-3375), 0.01% bovine albumin (Sigma-Aldrich Cat. No PA9205) • Substrate: 3-Phenyl-oxiranyl)-acetic acid cyano-(6-methoxy-naphtalen-2-yl)-methyl ester, Phome (Biozol Cat. No 10003134) • Microtiter plates: 96-well plates (Greiner Cat. No 655180; Costar Cat. No 3915)

Chain of recombinant sEH (soluble epoxide hydrolase, EPHX2) (P34913 whole entry): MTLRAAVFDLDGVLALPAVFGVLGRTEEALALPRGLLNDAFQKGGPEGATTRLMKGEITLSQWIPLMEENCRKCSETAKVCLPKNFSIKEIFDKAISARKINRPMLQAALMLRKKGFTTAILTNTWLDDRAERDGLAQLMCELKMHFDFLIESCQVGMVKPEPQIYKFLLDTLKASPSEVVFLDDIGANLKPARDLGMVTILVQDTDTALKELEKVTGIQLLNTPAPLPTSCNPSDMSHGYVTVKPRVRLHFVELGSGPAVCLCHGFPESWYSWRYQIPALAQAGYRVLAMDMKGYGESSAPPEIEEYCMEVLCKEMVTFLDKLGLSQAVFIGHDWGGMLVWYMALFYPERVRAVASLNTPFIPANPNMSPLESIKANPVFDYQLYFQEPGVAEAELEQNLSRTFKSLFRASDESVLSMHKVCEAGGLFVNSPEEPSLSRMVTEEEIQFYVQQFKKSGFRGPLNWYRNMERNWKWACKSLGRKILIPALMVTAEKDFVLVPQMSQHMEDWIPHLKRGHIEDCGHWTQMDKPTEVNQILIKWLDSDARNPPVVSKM

| Structure (SMILES) | IC50 [nM] |
| --- | --- |
| Cc1cccc(C(=O)N2CCN(Cc3ccc(C(=O)NCc4ccccc4OC(F)(F)F)s3)CC2)n1 [Example 72] | 2.59 |
| CC(C(=O)N1CCN(Cc2ncc(C(=O)NCc3ccc(Cl)cc3Cl)s2)CC1)N(C)C (centres unmarked) [Example 177, 2-[4-(2-Dimethylamino-propionyl)-piperazin-1-ylmethyl]-thiazole-5-carboxylic acid 2,4-dichloro-benzylamide] | 91.1 |
| O=C(NCc1ccc(Cl)cc1Cl)c1cnc(CN2CCN(C(=O)C3CCCO3)CC2)s1 (centres unmarked) [Example 182] | 18.4 |
| Cc1cccnc1N1CCN(Cc2ccc(C(=O)NCc3ccc(Cl)cc3Cl)s2)CC1=O [Example 105] | 2.33 |
| NC1(C(=O)N2CCN(Cc3ncc(C(=O)NCc4ccc(Cl)cc4Cl)s3)CC2)CC1 [Example 200] | 2.57 |
| CCOc1ccccc1C(=O)N1CCN(Cc2ccc(C(=O)NCc3ccccc3C(F)(F)F)s2)CC1 [Example 53] | 1.02 |
| O=C(NCc1ccc(Cl)cc1Cl)c1ccc(CN2CCN(C(=O)c3cnn4ccccc34)CC2)s1 [Example 8] | 0.512 |
| CNC(=O)c1cccnc1N1CCN(Cc2ccc(C(=O)NCc3ccc(Cl)cc3Cl)s2)CC1 [Example 14] | 2.93 |
| O=C(NCc1ccc(Cl)cc1Cl)c1cnc(CN2CCN(C(=O)C3(O)CC3)CC2)s1 [Example 201] | 6.37 |
| O=C(NCc1ccccc1OC(F)(F)F)c1ccc(CN2CCN(C(=O)C3CC3)CC2)s1 [Example 141] | 1.86 |
| CC(O)CC(=O)N1CCN(Cc2ccc(C(=O)NCc3ccccc3OC(F)(F)F)s2)CC1 (centres unmarked) [Example 92] | 1.39 |
| COCCC(=O)N1CCN(Cc2ccc(C(=O)NCc3ccccc3OC(F)(F)F)s2)CC1 [Example 116] | 1.6 |
| O=C(NCc1ccc(Cl)cc1Cl)c1cnc(CN2CCN(C(=O)C3CC3)CC2)s1 [Example 171] | 15.8 |
| COCC1(C(=O)N2CCN(Cc3ccc(C(=O)NCc4ccccc4OC(F)(F)F)s3)CC2)CC1 [Example 68] | 1.19 |
| Cc1cc(=O)oc(C)c1C(=O)N1CCN(Cc2ccc(C(=O)NCc3ccc(Cl)cc3F)s2)CC1 [Example 60, 5-[4-(2,4-Dimethyl-6-oxo-6H-pyran-3-carbonyl)-piperazin-1-ylmethyl]-thiophene-2-carboxylic acid 4-chloro-2-fluoro-benzylamide] | 1.1 |
| Cc1noc(C)c1C(=O)N1CCN(Cc2ccc(C(=O)NCc3ccccc3C(F)(F)F)s2)CC1 [Example 88] | 1.44 |
| COCC1(C(=O)N2CCN(Cc3ncc(C(=O)NCc4ccc(Cl)cc4Cl)s3)CC2)CC1 [Example 205] | 5.7 |
| NC1(C(=O)N2CCN(Cc3ccc(C(=O)NCc4ccccc4OC(F)(F)F)s3)CC2)CCCCC1 [Example 157] | 2.08 |
| O=C(NCc1ccc(Cl)cc1Cl)c1cnc(CN2CCN(C(=O)c3ccccn3)CC2)s1 [Example 186] | 33.7 |
| CC(C)[C@@H](O)C(=O)N1CCN(Cc2ncc(C(=O)NCc3ccc(Cl)cc3Cl)s2)CC1 [Example 198] | 13.3 |
| N#CCC(=O)N1CCN(Cc2ncc(C(=O)NCc3ccc(Cl)cc3Cl)s2)CC1 [Example 195] | 73.6 |

| Structure (SMILES) | IC50 [nM] |
| --- | --- |
| COc1ncccc1C(=O)N1CCN(Cc2ccc(C(=O)NCc3ccc(Cl)cc3Cl)s2)CC1 [Example 7] | 0.524 |
| COC(C)(C)C(=O)N1CCN(Cc2ncc(C(=O)NCc3ccc(Cl)cc3Cl)s2)CC1 [Example 207] | 6.31 |
| NC(CF)C(=O)N1CCN(Cc2ccc(C(=O)NCc3ccccc3OC(F)(F)F)s2)CC1 (centres unmarked) [Example 144] | 1.79 |
| O=C(NCc1ccc(Cl)cc1Cl)c1ccc(CN2CCN(C(=O)c3ccc(F)cc3Cl)CC2)s1 [Example 43] | 2.74 |
| O=C(NCc1ccc(Cl)cc1Cl)c1ccc(CN2CCN3C(=O)CCC3C2)s1 (centres unmarked) [Example 114] | 1.67 |
| O=C(NCc1ccccc1OC(F)(F)F)c1ccc(CN2CCN(C(=O)c3cccc(O)n3)CC2)s1 [Example 132] | 2.09 |
| COCCC(=O)N1CCN(Cc2ncc(C(=O)NCc3ccc(Cl)cc3Cl)s2)CC1 [Example 173] | 33.4 |
| COc1ccc(OC)c(C(=O)N2CCN(Cc3ccc(C(=O)NCc4ccccc4OC(F)(F)F)s3)CC2)n1 [Example 67] | 1.21 |
| Cc1cc(=O)oc(C)c1C(=O)N1CCN(Cc2ccc(C(=O)NCCCn3nc(C(F)(F)F)cc3C)s2)CC1 [Example 11] | 2.95 |
| Cc1cc(=O)oc(C)c1C(=O)N1CCN(Cc2ncc(C(=O)NCc3ccc(Cl)cc3Cl)s2)CC1 [Example 162] | 12.2 |
| O=C(NCc1ccccc1OC(F)(F)F)c1ccc(CN2CCN(C(=O)C3COCCO3)CC2)s1 (centres unmarked) [Example 147] | 1.96 |
| O=C(NCc1ccc(Cl)cc1Cl)c1ccc(CN2CCN(c3ccc(O)nn3)CC2)s1 [Example 50] | 2.67 |
| COCCOCC(=O)N1CCN(Cc2ncc(C(=O)NCc3ccc(Cl)cc3Cl)s2)CC1 [Example 188] | 15.9 |
| Cc1cc(=O)oc(C)c1C(=O)N1CCN(Cc2ccc(C(=O)NCc3ccccc3C(F)(F)F)s2)CC1 [Example 36] | 0.906 |
| O=C(NCc1ccc(Cl)cc1Cl)c1cnc(CN2CCN(C(=O)C3CCOC3)CC2)s1 (centres unmarked) [Example 183] | 18.8 |
| O=C(NCc1ccccc1OC(F)(F)F)c1ccc(CN2CCN(c3cnccn3)CC2)s1 [Example 73] | 2.59 |
| O=C(NCc1ccccc1OC(F)(F)F)c1ccc(CN2CCN(C3CCCC3)C(=O)C2)s1 [Example 38] | 0.803 |
| COc1ccc(CNC(=O)c2ccc(CN3CCN(CC(F)(F)F)C(=O)C3)s2)c(OC(F)(F)F)c1 [Example 56] | 1.01 |
| COc1ccc(CNC(=O)c2ccc(CN3CCN(C(=O)c4c(C)cc(=O)oc4C)CC3)s2)c(C(F)(F)F)c1 [Example 9] | 3.06 |
| Cc1c(C(=O)N2CCN(Cc3ccc(C(=O)NCCC(C)C)s3)CC2)oc2ccc(Br)cc12 [Example 12] | 25.4 |
| Cc1cc(=O)oc(C)c1C(=O)N1CCN(Cc2ccc(C(=O)NCc3cccc(Cl)c3Cl)s2)CC1 [Example 91] | 1.42 |

| Structure (SMILES) | IC50 [nM] |
| --- | --- |
| O=C(NCc1ccccc1OC(F)(F)F)c1ccc(CN2CCN(C(=O)C3(O)CC3)CC2)s1 [Example 37] | 0.929 |
| CC(C)CCNC(=O)c1ccc(CN2CCN(C(=O)c3ccnn3C(F)F)CC2)s1 [Example 13] | 2.98 |
| O=C(NCc1ccc(Cl)cc1Cl)c1ccc(CN2CCN(C(=O)C3Cc4ccccc43)CC2)s1 (centres unmarked) [Example 70] | 2.62 |
| COc1cccnc1C(=O)N1CCN(Cc2ccc(C(=O)NCc3ccccc3OC(F)(F)F)s2)CC1 [Example 97] | 1.6 |
| COc1cccc(C(=O)N2CCN(Cc3ncc(C(=O)NCc4ccc(Cl)cc4Cl)s3)CC2)n1 [Example 202] | 13.3 |
| O=C(NCc1ccc(Cl)cc1Cl)c1cnc(CN2CCN(C(=O)C3COCCO3)CC2)s1 (centres unmarked) [Example 170] | 18 |
| O=C(NCc1ccc(Cl)cc1Cl)c1cnc(CN2CCN(C(=O)CN3C[C@@H](O)CC3=O)CC2)s1 [Example 210] | 52.4 |
| CC(C)[C@@H](O)C(=O)N1CCN(Cc2ccc(C(=O)NCc3ccccc3OC(F)(F)F)s2)CC1 [Example 101] | 2.28 |
| O=C(NCc1ccccc1OC(F)(F)F)c1ccc(CN2CCN(c3ccc(O)nn3)CC2)s1 [Example 136] | 2.13 |
| CC(C)(CO)C(=O)N1CCN(Cc2ncc(C(=O)NCc3ccc(Cl)cc3Cl)s2)CC1 [Example 176] | 13.4 |
| CC1(C)CC[C@@H](C(=O)N2CCN(Cc3ccc(C(=O)NCc4ccccc4OC(F)(F)F)s3)CC2)N1 [Example 86] | 2.38 |
| Cc1cc(C(=O)NCc2cccc3c2OCCO3)sc1CN1CCN(C(=O)c2c(C)cc(=O)oc2C)CC1 [Example 29] | 0.803 |
| CC(C(=O)N1CCN(Cc2ccc(C(=O)NCc3ccc(Cl)cc3Cl)s2)CC1)c1ccccc1 (centres unmarked) [Example 63] | 1.21 |
| O=C(NCc1ccc(Cl)cc1Cl)c1ccc(CN2CCN(C(=O)c3ccccn3)CC2)s1 [Example 77] | 2.49 |
| Cc1cc(C(=O)NCCC(C)(C)C)sc1CN1CCN(C(=O)c2c(C)cc(=O)oc2C)CC1 [Example 159] | 0.8 |
| CC1(C)OC(=O)CC1C(=O)N1CCN(Cc2ncc(C(=O)NCc3ccc(Cl)cc3Cl)s2)CC1 (centres unmarked) [Example 161] | 6.11 |
| O=C(NCc1ccccc1C(F)(F)F)c1ccc(CN2CCN(C(=O)c3ccccc3F)CC2)s1 [Example 119] | 1.68 |
| CC(C)(O)CC(=O)N1CCN(Cc2ccc(C(=O)NCc3ccccc3OC(F)(F)F)s2)CC1 [Example 128] | 1.73 |
| COc1cc(CNC(=O)c2ccc(CN3CCN(C(=O)c4c(C)cc(=O)oc4C)CC3)s2)ccn1 [Example 34] | 0.906 |

same assay, conditions: recombinant sEH purified from Sf9 insect cells, 2 nM sEH, 5 μM Phome, 60 minutes at 30° C.; trifluoroacetate

| Structure (SMILES) | IC50 [nM] |
| --- | --- |
| CC(O)C(=O)N1CCN(Cc2ccc(C(=O)NCc3ccccc3OC(F)(F)F)s2)CC1 (centres unmarked) [Example 54, 5-[4-(2-Hydroxy-propionyl)-piperazin-1-ylmethyl]-thiophene-2-carboxylic acid 2-trifluoromethoxy-benzylamide, trifluoroacetate] | 0.976 |
